The results in this text go back to US20250041429A1, “COMPOUND HAVING BTK PROTEIN DEGRADATION ACTIVITY, AND MEDICAL USES THEREOF” (UBIX THERAPEUTICS, INC., priority 2021, published 2025).

The test has as its target T1, BTK protein (Homo sapiens, UniProt Q06187).
T1 construct: endogenous in cells; host or cells: TMD-8 cells
Kind of test: Measurement of BTK protein degradation ability in TMD-8 cells (Western blotting). The conditions noted are these: harvested after 24 hours; for BTK degradation (%) 1 nM: compound 1 nM; for BTK degradation (%) 10 nM: compound 10 nM; for BTK degradation (%) 100 nM: compound 100 nM. In kind it is cell-based. The method in brief: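 BTK levels were measured by immunoblotting of equal-protein RIPA lysates, normalized to GAPDH or β-actin, with chemiluminescent or infrared detection. Lysates came from TMD-8 cells exposed to compound for 24 h at final concentrations of 0.1, 1, 10 μM or 0.0001–0.1 μM, against a DMSO control.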
Background: In western blotting, separated proteins are transferred to a membrane and probed.

T1 sequence (Q06187 whole entry): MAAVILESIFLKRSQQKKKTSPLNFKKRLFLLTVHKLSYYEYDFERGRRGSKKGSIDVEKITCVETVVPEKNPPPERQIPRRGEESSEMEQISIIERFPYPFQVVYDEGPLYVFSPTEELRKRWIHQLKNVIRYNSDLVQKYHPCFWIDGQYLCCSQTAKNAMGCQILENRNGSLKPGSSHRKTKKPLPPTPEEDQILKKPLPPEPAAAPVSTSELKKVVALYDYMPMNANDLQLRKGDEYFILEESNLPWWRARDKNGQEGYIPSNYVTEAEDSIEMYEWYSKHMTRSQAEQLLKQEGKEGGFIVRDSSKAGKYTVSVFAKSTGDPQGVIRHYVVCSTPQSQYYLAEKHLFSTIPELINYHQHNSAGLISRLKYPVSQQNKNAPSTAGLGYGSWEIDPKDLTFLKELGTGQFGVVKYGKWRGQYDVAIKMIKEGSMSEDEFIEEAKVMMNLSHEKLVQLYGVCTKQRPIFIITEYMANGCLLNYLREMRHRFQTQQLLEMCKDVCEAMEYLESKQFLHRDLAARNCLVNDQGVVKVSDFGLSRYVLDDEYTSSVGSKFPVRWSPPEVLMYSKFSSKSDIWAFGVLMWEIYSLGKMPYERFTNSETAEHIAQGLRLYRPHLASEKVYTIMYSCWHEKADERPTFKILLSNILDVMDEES

Turning to `Cc1cc(-c2ccnc(Nc3ccc(N4CCN(CC5CN(c6ccc7c(c6)C(=O)N(C6CCC(=O)NC6=O)C7=O)C5)CC4)cc3)n2)ccc1CNC(=O)c1cnn(C(C)C)c1` (stereo not drawn) [Example 34, N-(4-(2-((4-(4-((1-(2-(2,6-dioxopiperidin-3-yl)-1,3-dioxoisoindolin-5-yl)azetidin-3-yl)methyl)piperazin-1-yl)phenyl)amino)pyrimidin-4-yl)-2-methylbenzyl)-1-isopropyl-1H-pyrazole-4-carboxamide], the “BTK degradation (%) 1 nM” value is on record as 41%, the “BTK degradation (%) 10 nM” value stood at 90% and the “BTK degradation (%) 100 nM” value turned out to be 99.5%.
For `Cc1cc(-c2ccnc(Nc3cnn(C4CCN(CC5CCN(c6ccc7c(c6)C(=O)N(C6CCC(=O)NC6=O)C7=O)CC5)CC4)c3)n2)ccc1CNC(=O)c1cnn(C(C)C)c1` (stereo not drawn) [Example 35, N-(4-(2-((1-(1-((1-(2-(2,6-dioxopiperidin-3-yl)-1,3-dioxoisoindolin-5-yl)piperidin-4-yl)methyl)piperidin-4-yl)-1H-pyrazol-4-yl)amino)pyrimidin-4-yl)-2-methylbenzyl)-1-isopropyl-1H-pyrazole-4-carboxamide] the same measures were 50.5%, 93.5% and 99.5%.
`Cc1cc(-c2ccnc(Nc3cnn(C4CCN(CC5CN(c6ccc7c(c6)C(=O)N(C6CCC(=O)NC6=O)C7=O)C5)CC4)c3)n2)ccc1CNC(=O)c1cnn(C(C)C)c1` (stereo not drawn) [Example 36, N-(4-(2-((1-(1-((1-(2-(2,6-dioxopiperidin-3-yl)-1,3-dioxoisoindolin-5-yl)azetidin-3-yl)methyl)piperidin-4-yl)-1H-pyrazol-4-yl)amino)pyrimidin-4-yl)-2-methylbenzyl)-1-isopropyl-1H-pyrazole-4-carboxamide]: the “BTK degradation (%) 1 nM” value is 60%, the “BTK degradation (%) 10 nM” value was found to be 94% and the “BTK degradation (%) 100 nM” value turned out to be 99%.
As for `Cc1cc(-c2ccnc(Nc3cnn(C4CCN(CC5CCN(c6ccc7c(c6)C(=O)N(C6CCC(=O)NC6=O)C7=O)CC5)CC4)c3)n2)ccc1CNC(=O)c1cnn(C(C)(C)C)c1` (stereo not drawn) [Example 37, 1-(tert-butyl)-N-(4-(2-((1-(1-((1-(2-(2,6-dioxopiperidin-3-yl)-1,3-dioxoisoindolin-5-yl)piperidin-4-yl)methyl)piperidin-4-yl)-1H-pyrazol-4-yl)amino)pyrimidin-4-yl)-2-methylbenzyl)-1H-pyrazole-4-carboxamide], the “BTK degradation (%) 1 nM” value is 54.5%, the “BTK degradation (%) 10 nM” value was 92.5% and the “BTK degradation (%) 100 nM” value amounted to 99%.
`Cc1cc(-c2ccnc(Nc3cnn(C4CCN(CC5CN(c6ccc7c(c6)C(=O)N(C6CCC(=O)NC6=O)C7=O)C5)CC4)c3)n2)ccc1CNC(=O)c1cnn(C(C)(C)C)c1` (stereo not drawn) [Example 38, 1-(tert-butyl)-N-(4-(2-((1-(1-((1-(2-(2,6-dioxopiperidin-3-yl)-1,3-dioxoisoindolin-5-yl)azetidin-3-yl)methyl)piperidin-4-yl)-1H-pyrazol-4-yl)amino)pyrimidin-4-yl)-2-methylbenzyl)-1H-pyrazole-4-carboxamide]: the “BTK degradation (%) 1 nM” value is given as 72.5%, the “BTK degradation (%) 10 nM” value is on record as 96% and the “BTK degradation (%) 100 nM” value is on record as 98.5%.
For `Cc1cc(-c2ccnc(Nc3cnn(C4CCN(CC5CCN(c6ccc7c(c6)C(=O)N(C6CCC(=O)NC6=O)C7=O)CC5)CC4)c3)n2)ccc1CNC(=O)c1cn(C(C)(C)C)nn1` (stereo not drawn) [Example 39, 1-(tert-butyl)-N-(4-(2-((1-(1-((1-(2-(2,6-dioxopiperidin-3-yl)-1,3-dioxoisoindolin-5-yl)piperidin-4-yl)methyl)piperidin-4-yl)-1H-pyrazol-4-yl)amino)pyrimidin-4-yl)-2-methylbenzyl)-1H-1,2,3-triazole-4-carboxamide] the same measures were 65.5%, 93.5% and 98.5%.
Take `Cc1cc(-c2ccnc(Nc3cnn(C4CCN(CC5CN(c6ccc7c(c6)C(=O)N(C6CCC(=O)NC6=O)C7=O)C5)CC4)c3)n2)ccc1CNC(=O)c1cn(C(C)(C)C)nn1` (stereo not drawn) [Example 40, 1-(tert-butyl)-N-(4-(2-((1-(1-((1-(2-(2,6-dioxopiperidin-3-yl)-1,3-dioxoisoindolin-5-yl)azetidin-3-yl)methyl)piperidin-4-yl)-1H-pyrazol-4-yl)amino)pyrimidin-4-yl)-2-methylbenzyl)-1H-1,2,3-triazole-4-carboxamide]: the “BTK degradation (%) 1 nM” value is reported as 69.5%, the “BTK degradation (%) 10 nM” value was 95.5% and the “BTK degradation (%) 100 nM” value is given as 98%.
As to `Cc1cc(-c2ccnc(Nc3ccc(C4CN(CC5CCN(c6ccc7c(c6)C(=O)N(C6CCC(=O)NC6=O)C7=O)CC5)C4)cc3)n2)ccc1CNC(=O)N1CC(OC(C)C)C1` (stereo not drawn) [Example 41, N-(4-(2-((4-(1-((1-(2-(2,6-dioxopiperidin-3-yl)-1,3-dioxoisoindolin-5-yl)piperidin-4-yl)methyl)azetidin-3-yl)phenyl)amino)pyrimidin-4-yl)-2-methylbenzyl)-3-isopropoxyazetidine-1-carboxamide], the “BTK degradation (%) 1 nM” value is listed as 81.5%, the “BTK degradation (%) 10 nM” value is on record as 100.0% and the “BTK degradation (%) 100 nM” value is listed as 100.0%.
`Cc1cc(-c2ccnc(Nc3ccc(N4CCN(CC5CCN(c6cccc(OC7CCC(=O)NC7=O)c6)CC5)CC4)cc3)n2)ccc1CNC(=O)N1CC(OC(C)C)C1` (stereo not drawn) [Example 42, N-(4-(2-((4-(4-((1-(3-((2,6-dioxopiperidin-3-yl)oxy)phenyl)piperidin-4-yl)methyl)piperazin-1-yl)phenyl)amino)pyrimidin-4-yl)-2-methylbenzyl)-3-isopropoxyazetidine-1-carboxamide]: the “BTK degradation (%) 1 nM” value came out at 60.5%, the “BTK degradation (%) 10 nM” value stood at 97.5% and the “BTK degradation (%) 100 nM” value came out at 100.0%.
On to `Cc1cc(-c2ccnc(Nc3ccc(N4CCN(CC5CCN(c6ccc(OC7CCC(=O)NC7=O)cc6)CC5)CC4)cc3)n2)ccc1CNC(=O)N1CC(OC(C)C)C1` (stereo not drawn) [Example 43, N-(4-(2-((4-(4-((1-(4-((2,6-dioxopiperidin-3-yl)oxy)phenyl)piperidin-4-yl)methyl)piperazin-1-yl)phenyl)amino)pyrimidin-4-yl)-2-methylbenzyl)-3-isopropoxyazetidine-1-carboxamide], for which the “BTK degradation (%) 1 nM” value amounted to 83.0%, the “BTK degradation (%) 10 nM” value amounted to 100.0% and the “BTK degradation (%) 100 nM” value worked out at 100.0%.
For `Cc1cc(-c2ccnc(Nc3ccc(C4CCN(CC5CN(c6ccc7c(c6)C(=O)N(C6CCC(=O)NC6=O)C7=O)C5)CC4)cc3)n2)ccc1CNC(=O)c1cnn(C(C)C)c1` (stereo not drawn) [Example 44, N-(4-(2-((4-(1-((1-(2-(2,6-dioxopiperidin-3-yl)-1,3-dioxoisoindolin-5-yl)azetidin-3-yl)methyl)piperidin-4-yl)phenyl)amino)pyrimidin-4-yl)-2-methylbenzyl)-1-isopropyl-1H-pyrazole-4-carboxamide], the “BTK degradation (%) 1 nM” value worked out at 66.0%, the “BTK degradation (%) 10 nM” value is 95.0% and the “BTK degradation (%) 100 nM” value turned out to be 99.0%.
On to `Cc1cc(-c2ccnc(Nc3ccc(C4CCN(CC5CN(c6ccc7c(c6)C(=O)N(C6CCC(=O)NC6=O)C7=O)C5)CC4)cc3)n2)ccc1CNC(=O)c1cnn(C(C)(C)C)c1` (stereo not drawn) [Example 45, 1-(tert-butyl)-N-(4-(2-((4-(1-((1-(2-(2,6-dioxopiperidin-3-yl)-1,3-dioxoisoindolin-5-yl)azetidin-3-yl)methyl)piperidin-4-yl)phenyl)amino)pyrimidin-4-yl)-2-methylbenzyl)-1H-pyrazole-4-carboxamide], for which the “BTK degradation (%) 1 nM” value was 45.5%, the “BTK degradation (%) 10 nM” value was found to be 89.5% and the “BTK degradation (%) 100 nM” value turned out to be 98.0%.
For `Cc1cc(-c2ccnc(Nc3ccc(C4CCN(CC5CN(c6ccc7c(c6)C(=O)N(C6CCC(=O)NC6=O)C7=O)C5)CC4)cc3)n2)ccc1CNC(=O)c1cn(C(C)(C)C)nn1` (stereo not drawn) [Example 46, 1-(tert-butyl)-N-(4-(2-((4-(1-((1-(2-(2,6-dioxopiperidin-3-yl)-1,3-dioxoisoindolin-5-yl)azetidin-3-yl)methyl)piperidin-4-yl)phenyl)amino)pyrimidin-4-yl)-2-methylbenzyl)-1H-1,2,3-triazole-4-carboxamide] the same measures were 46.5%, 91.0% and 98.0%.
`Cc1cc(-c2ccnc(Nc3ccc(C4CCN(CC5CCN(c6ccc(OC7CCC(=O)NC7=O)cc6)CC5)CC4)cc3)n2)ccc1CNC(=O)N1CC(OC(C)C)C1` (stereo not drawn) [Example 47, N-(4-(2-((4-(1-((1-(4-((2,6-dioxopiperidin-3-yl)oxy)phenyl)piperidin-4-yl)methyl)piperidin-4-yl)phenyl)amino)pyrimidin-4-yl)-2-methylbenzyl)-3-isopropoxyazetidine-1-carboxamide]: the “BTK degradation (%) 1 nM” value was found to be 22.5%, the “BTK degradation (%) 10 nM” value worked out at 93.5% and the “BTK degradation (%) 100 nM” value is reported as 99.5%.
`Cc1cc(-c2ccnc(Nc3ccc(N4CCN(CC5CCN(c6ccc(OC7CCC(=O)NC7=O)cc6)CC5)CC4)cc3)n2)ccc1CNC(=O)c1cnn(C(C)C)c1` (stereo not drawn) [Example 48, N-(4-(2-((4-(4-((1-(4-((2,6-dioxopiperidin-3-yl)oxy)phenyl)piperidin-4-yl)methyl)piperazin-1-yl)phenyl)amino)pyrimidin-4-yl)-2-methylbenzyl)-1-isopropyl-1H-pyrazole-4-carboxamide]: the “BTK degradation (%) 1 nM” value is given as 53.5%, the “BTK degradation (%) 10 nM” value was 94.5% and the “BTK degradation (%) 100 nM” value was found to be 99.0%.
